Results taken from patent publication US20040072368A1, “Lipoprotein receptor” (priority 2002, published 2004).

Experiments:
[1] = system: HepG2 cells; test: Competitive inhibition of binding of 125I-labeled apoA-I to HepG2 cells; parameters: species or system human; conditions: 1 μg/ml 125I-apoA-I, no competitor, 2 h at 4° C.
Experimental: HepG2 cells (panel A) and submitochondrial particles (panel B) are incubated for 2 h at 4° C. in the presence of 1 μg/ml ^125I-labeled apoA-1 and 5 μg/ml ^125I-labeled HDL3 respectively, in the presence of increasing concentrations of either unlabeled apoA-I (◯, panel A), unlabeled HDL3 (●, panel B), anti β-subunit of ATP synthase mouse monoclonal IgG2a (□) or purified isotype mouse IgG2a (♦). The 100% specific binding corresponds to 25,5 ng apoA-I bound per mg of cell proteins (panel A) and 2050 ng HDL3 protein bound per mg of mitochondrial proteins (panel B). Fab fragments from anti-β-subunit of ATP synthase are also used as competitors and results are identical to anti β-subunit IgG2a (data not shown). The results are representative of three independent series of experiments.
The competition experiments are performed at 4° C. for 2 h as previously described (6). […] Cells are washed twice with ice-cold PBS (maximum washing time is 15 s), lysed with 500 μl of 0.1 N NaOH, and the NaOH digest is used for radioactivity measurement and protein determination. […] Filters are used for radioactivity measurements. […] Data are expressed as the percentage of the specific binding measured in the absence of competitor versus the log of competitor concentration (in nM).

[2] = system: HepG2 cells; test: LDL internalisation assay; assay type: cell-based, human; conditions: 10 μg/ml free-apoA-I or 100 nM ADP, 10 min at 37° C.
Experimental: (§1) Panel 1, 2 and 3. TG-HDL2 and LDL internalization by HepG2 cells. Cells are incubated for 10 min at 37° C. with 75 μg/ml of ^125I-TG-HDL2 (panels 1 and 3), TG-HDL2 labelled with ^3H-cholesteryl ester (panel 1 “chol”) or ^1251-LDL (panel 2). Alternatively, 10 μg/ml free-apoA-I (A, G), 100 nM ADP (B, H), both free-apoA-I and ADP at the same concentrations as above (C), 100 nM ATP (D), 0.2 U/ml apyrase (E), 100 nM EGF (F), or increasing concentrations of 2MeS-ADP (▪) and ATPγS (□) (panel 3) are added to the incubation medium. Results are expressed as the percentage of stimulation related to the value of internalisation obtained without addition of any compound (corresponding to a value of 400 ng TG-HDL2/mg of cell protein). The same experiments are performed on IHH cells with similar results (data not shown).
Cells are washed three times and pre-incubated for 30 min at 37° C. in serum free DMEM. ^125I triglyceride rich-HDL2 (75 μg/ml) are added on the cells and incubated at 37° C. for various time. […] The radioactivity internalised into the cells and the protein content is determined as in the competition assays. Non-specific internalisation is analysed in the presence of an excess of 600 μg/ml of HDL3. Results are expressed as the percentage of stimulation related to the value of internalisation obtained without addition of any compound. […]

[3] = system: HepG2 cells; test: TG-HDL2 internalisation assay; assay type: cell-based, human; conditions: increasing free-apoA-I from 0.1 to 20 μg/ml, HepG2 or IHH cells, preliminary experiment
Experimental: as §1
HepG2 cells are incubated for 10 min at 37° C. in DMEM pH 6.6 with 75 μg/ml of ^125I-TGHDL 2 and in the presence of increasing concentrations of IF, without (panel A) or with (panel B) free-apoA-I (10 μg/ml). Results are expressed as the percentage of stimulation as referred to the value of internalisation obtained without addition of any compound (corresponding to a value of 400 ng TG-HDL2/mg of cell protein).
Cells are washed three times and pre-incubated for 30 min at 37° C. in serum free DMEM. ^125I triglyceride rich-HDL2 (75 μg/ml) are added on the cells and incubated at 37° C. for various time. Depending on the experiment, free apolipoprotein A-I (10 μg/ml) or other compounds, are added to the incubation medium. At each incubation time, cells are washed with cold DMEM and the release of radioactive ligands associated to the cell surface is performed at 4° C., for 90 min in DMEM. The radioactivity internalised into the cells and the protein content is determined as in the competition assays. Non-specific internalisation is analysed in the presence of an excess of 600 μg/ml of HDL3. Results are expressed as the percentage of stimulation related to the value of internalisation obtained without addition of any compound. The same method is used for the measurement of LDL internalisation.

[4] = system: EGF receptor; test: EGF receptor internalisation by flow cytometry; assay type: cell-based, human; conditions: HepG2, 10 min pre-incubation, 10 μg/ml free-apoA-I or 100 nM ADP
Experimental: Panel 4. Internalisation of EGF receptor by HepG2 cells. Cells are pre-incubated for 10 min in serum-free medium with (J) or without (K) […] EGF, or with 10 μg/ml free-apoA-I (L), 100 nM ADP (M). The amount of EGF receptor is measured by Flow Cytometry using anti-EGF receptor antibody. As a control experiment for the efficacy of EGF receptor antibody, isotypic IgG are used (I). Results are expressed as the mean relative cell fluorescence and receptor internalisation is related to lower fluorescence.
For analysis of the cell surface EGF receptor, HepG2 cells are preincubated in medium with or without 20 nM EGF for 10 min at 37° C. For flow cytometry analysis, HepG2 and CHO cells are detached by incubation with Ca2+, Mg2+free PBS containing 2 mM EDTA, pH 7.4, fixed in 3% paraformaldehyde and pelleted in a microfuge. Cells are incubated at 20° C. for 1 h in PBS, pH 7.4 containing 1% BSA with either mouse monoclonal antibodies against the human β-subunit of ATP synthase, the human cytochrome oxidase subunit I, the human EGF receptor or against isotypic control IgG. Cells are washed in PBS/BSA 1% and incubated at 20° C. for 30 min with goat […] IgG conjugated to fluorescein isothiocyanate. After a final wash, cells are pelleted and resuspended in PBS/BSA 1% at a density of 1×10^6 cells/ml. The mean relative fluorescence after excitation at a wavelength of 488 nm is determined for each sample on a Coulter XL 4C flow cytometer and analysed with CELLQUEST software (Becton-Dickenson).

free-apoA-I: major apoprotein of HDL, single polypeptide chain of 243 amino acid residues, isolated from HDL3 by ion-exchange chromatography
100% specific binding [1]: 25,5 ng apoA-I bound per mg of cell proteins
stimulation of endocytosis of 125I-labeled LDL [2]: no stimulation
radioactivity internalised into the cells (125I-labeled TG-HDL2) [3]: increased
number of EGF-R at the cell surface [4]: neither free apoA-I (FIG. 6-4L) nor ADP (FIG. 6-4M) are able to reduce
